Source: patent publication US10189788B2, “Substituted N,2-diarylquinoline-4-carboxamides and the use thereof as anti-inflammatory agents” (BAYER PHARMA AKTIENGESELLSCHAFT, priority 2014, dated 2019)

Target: Human FP Receptor (Homo sapiens (Human), UniProt P43088)
Test: In vitro test of inhibition of human FP receptor activity, variant B-1A (PGF2α-induced calcium flux in FP-expressing CHEM1 cells)
Format: cell-based
Details: calcium flux induced by 3 nM PGF2α, Fluo-8, some mean values from multiple determinations
Source text: • BSA bovine serum albumin • CRTH2 chemoattractant receptor-homologous molecule expressed on T helper type 2 cells • DMEM Dulbecco's modified Eagle's medium • DMSO dimethyl sulfoxide • DP PGD2 receptor • EC50 half-maximum effective concentration • em. emission • EP PGE2 receptor • ex. excitation • FCS fetal calf serum • FP PGF2α receptor • HEPES 2-[4-(2-hydroxyethyl)piperazin-1-yl]ethanesulfonic acid • IC50 half-maximum inhibitory concentration • IP PGI2 receptor • MES 2-(N-morpholino)ethanesulfonic acid • Pen/Strep penicillin/streptomycin • PGD2 prostaglandin D2 • PGE2 prostaglandin E2 • PGF2α prostaglandin F2α • PGI2 prostaglandin […] • TC tissue culture • TP thromboxane A2 receptor • Tris tris(hydroxymethyl)aminomethane • v/v volume to volume ratio (of a solution) • w/w weight to weight ratio (of a solution) B-1.

Chain of Human FP Receptor (P43088 whole entry): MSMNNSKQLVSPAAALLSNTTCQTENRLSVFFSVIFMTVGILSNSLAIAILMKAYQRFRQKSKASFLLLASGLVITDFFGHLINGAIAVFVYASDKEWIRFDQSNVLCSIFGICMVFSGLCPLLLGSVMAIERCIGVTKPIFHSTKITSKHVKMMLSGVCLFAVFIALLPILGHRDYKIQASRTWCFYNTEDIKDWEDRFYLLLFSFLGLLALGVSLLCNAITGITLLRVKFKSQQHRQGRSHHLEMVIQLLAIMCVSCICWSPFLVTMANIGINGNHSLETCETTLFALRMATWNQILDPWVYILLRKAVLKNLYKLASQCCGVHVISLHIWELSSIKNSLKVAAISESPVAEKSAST

Row | Structure (SMILES) | IC50
1 | Cc1c(-c2ccccc2)nc2ccc(Br)cc2c1C(=O)Nc1ccc(C(=O)O)cc1 [Example 1, 4-{[(6-Bromo-3-methyl-2-phenylquinolin-4-yl)carbonyl]amino}benzoic acid] | 166 nM
2 | Cc1c(-c2ccccc2)nc2ccc(Br)cc2c1C(=O)Nc1cnc(C(=O)O)cn1 [Example 3, 5-{[(6-Bromo-3-methyl-2-phenylquinolin-4-yl)carbonyl]amino}pyrazine-2-carboxylic acid] | 170 nM
3 | Cc1c(-c2ccccc2)nc2ccc(Br)cc2c1C(=O)Nc1cnc(C(=O)O)nc1 [Example 4, 5-{[(6-Bromo-3-methyl-2-phenylquinolin-4-yl)carbonyl]amino}pyrimidine-2-carboxylic acid] | 880 nM
4 | Cc1nc(C(=O)O)ccc1NC(=O)c1c(C)c(-c2ccccc2)nc2ccc(Br)cc12 [Example 5, 5-{[(6-Bromo-3-methyl-2-phenylquinolin-4-yl)carbonyl]amino}-6-methylpyridine-2-carboxylic acid] | 905 nM
5 | Cc1c(-c2ccccc2)nc2ccc(Br)cc2c1C(=O)Nc1ncc(C(=O)O)cc1F [Example 6, 6-{[(6-Bromo-3-methyl-2-phenylquinolin-4-yl)carbonyl]amino}-5-fluoronicotinic acid] | 79 nM
6 | Cc1c(-c2ccccc2)nc2ccc(Br)cc2c1C(=O)Nc1ccc(C(=O)O)c(F)c1 [Example 8, 4-{[(6-Bromo-3-methyl-2-phenylquinolin-4-yl)carbonyl]amino}-2-fluorobenzoic acid] | 795 nM
7 | Cc1c(-c2ccccc2)nc2ccc(Br)cc2c1C(=O)Nc1ccc(C(=O)O)cc1Cl [Example 9, 4-{[(6-Bromo-3-methyl-2-phenylquinolin-4-yl)carbonyl]amino}-3-chlorobenzoic acid] | 65 nM
8 | Cc1c(-c2ccccc2)nc2ccc(Br)cc2c1C(=O)Nc1ccc(C(=O)O)cc1Br [Example 10, 3-Bromo-4-{[(6-bromo-3-methyl-2-phenylquinolin-4-yl)carbonyl]amino}benzoic acid] | 41 nM
9 | Cc1c(-c2ccccc2)nc2ccc(Br)cc2c1C(=O)Nc1c(F)cc(C(=O)O)cc1F [Example 12, 4-{[(6-Bromo-3-methyl-2-phenylquinolin-4-yl)carbonyl]amino}-3,5-difluorobenzoic acid] | 22 nM
10 | Cc1c(-c2ccccc2)nc2ccc(Br)cc2c1C(=O)Nc1c(Cl)cc(C(=O)O)cc1Cl [Example 13, 4-{[(6-Bromo-3-methyl-2-phenylquinolin-4-yl)carbonyl]amino}-3,5-dichlorobenzoic acid] | 150 nM
11 | Cc1cc(C(=O)O)ccc1NC(=O)c1c(C)c(-c2ccccc2)nc2ccc(Br)cc12 [Example 14, 4-{[(6-Bromo-3-methyl-2-phenylquinolin-4-yl)carbonyl]amino}-3-methylbenzoic acid] | 617 nM
12 | Cc1c(-c2ccccc2)nc2ccc(Br)cc2c1C(=O)Nc1ccc(C(=O)O)cc1C(F)(F)F [Example 15, 4-{[(6-Bromo-3-methyl-2-phenylquinolin-4-yl)carbonyl]amino}-3-(trifluoromethyl)benzoic acid] | 45 nM
13 | Cc1c(-c2ccccc2)nc2ccc(Br)cc2c1C(=O)Nc1ccc(C(=O)O)cc1C#N [Example 16, 4-{[(6-Bromo-3-methyl-2-phenylquinolin-4-yl)carbonyl]amino}-3-cyanobenzoic acid] | 278 nM
14 | Cc1c(-c2ccccc2)nc2ccc(Br)cc2c1C(=O)Nc1ccc(C(=O)O)cc1N [Example 18, 3-Amino-4-{[(6-bromo-3-methyl-2-phenylquinolin-4-yl)carbonyl]amino}benzoic acid] | 335 nM
15 | CC(=O)Nc1cc(C(=O)O)ccc1NC(=O)c1c(C)c(-c2ccccc2)nc2ccc(Br)cc12 [Example 19, 3-Acetamido-4-{[(6-bromo-3-methyl-2-phenylquinolin-4-yl)carbonyl]amino}benzoic acid] | 650 nM
16 | CCNC(=O)Nc1cc(C(=O)O)ccc1NC(=O)c1c(C)c(-c2ccccc2)nc2ccc(Br)cc12 [Example 20, 4-{[(6-Bromo-3-methyl-2-phenylquinolin-4-yl)carbonyl]amino}-3-[(ethylcarbamoyl)amino]benzoic acid] | 530 nM
17 | COc1cc(C(=O)O)ccc1NC(=O)c1c(C)c(-c2ccccc2)nc2ccc(Br)cc12 [Example 21, 4-{[(6-Bromo-3-methyl-2-phenylquinolin-4-yl)carbonyl]amino}-3-methoxybenzoic acid] | 204 nM
18 | Cc1c(-c2ccccc2)nc2ccc(Br)cc2c1C(=O)Nc1ccc(C(=O)O)cc1OC(F)(F)F [Example 23, 4-{[(6-Bromo-3-methyl-2-phenylquinolin-4-yl)carbonyl]amino}-3-(trifluoromethoxy)benzoic acid] | 57 nM
19 | CSc1cc(C(=O)O)ccc1NC(=O)c1c(C)c(-c2ccccc2)nc2ccc(Br)cc12 [Example 24, 4-{[(6-Bromo-3-methyl-2-phenylquinolin-4-yl)carbonyl]amino}-3-(methylsulfanyl)benzoic acid] | 124 nM

Row | Structure (SMILES) | IC50
20 | Cc1c(-c2ccccc2)nc2ccc(Br)cc2c1C(=O)Nc1ccc(C(=O)O)cc1[S+](C)[O-] (stereo not shown) [Example 25, 4-{[(6-Bromo-3-methyl-2-phenylquinolin-4-yl)carbonyl]amino}-3-(methylsulfinyl)benzoic acid] | 720 nM
21 | Cc1c(-c2ccccc2)nc2ccc(Br)cc2c1C(=O)Nc1ccc(C(=O)O)cc1S(C)(=O)=O [Example 26, 4-{[(6-Bromo-3-methyl-2-phenylquinolin-4-yl)carbonyl]amino}-3-(methylsulfonyl)benzoic acid] | 86 nM
22 | CCS(=O)(=O)c1cc(C(=O)O)c(OC)cc1NC(=O)c1c(C)c(-c2ccccc2)nc2ccc(Br)cc12 [Example 27, 4-{[(6-Bromo-3-methyl-2-phenylquinolin-4-yl)carbonyl]amino}-5-(ethylsulfonyl)-2-methoxybenzoic acid] | 97 nM
23 | Cc1c(-c2ccccc2)nc2ccc(Br)cc2c1C(=O)Nc1ccc(C(=O)O)cc1SC(F)(F)F [Example 28, 4-{[(6-Bromo-3-methyl-2-phenylquinolin-4-yl)carbonyl]amino}-3-[(trifluoromethyl)sulfanyl]benzoic acid] | 17 nM
24 | Cc1c(-c2ccccc2)nc2ccc(F)cc2c1C(=O)Nc1ccc(C(=O)O)cc1F [Example 29, 3-Fluoro-4-{[(6-fluoro-3-methyl-2-phenylquinolin-4-yl)carbonyl]amino}benzoic acid] | 890 nM
25 | Cc1c(-c2ccccc2)nc2ccc(I)cc2c1C(=O)Nc1ccc(C(=O)O)cc1F [Example 30, 3-Fluoro-4-{[(6-iodo-3-methyl-2-phenylquinolin-4-yl)carbonyl]amino}benzoic acid] | 6 nM
26 | Cc1ccc2nc(-c3ccccc3)c(C)c(C(=O)Nc3ccc(C(=O)O)cc3F)c2c1 [Example 31, 4-{[(3,6-Dimethyl-2-phenylquinolin-4-yl)carbonyl]amino}-3-fluorobenzoic acid] | 165 nM
27 | CCc1ccc2nc(-c3ccccc3)c(C)c(C(=O)Nc3ccc(C(=O)O)cc3F)c2c1 [Example 32, 4-{[(6-Ethyl-3-methyl-2-phenylquinolin-4-yl)carbonyl]amino}-3-fluorobenzoic acid] | 245 nM
28 | Cc1c(-c2ccccc2)nc2ccc(C(C)C)cc2c1C(=O)Nc1ccc(C(=O)O)cc1F [Example 33, 3-Fluoro-4-{[(6-isopropyl-3-methyl-2-phenylquinolin-4-yl)carbonyl]amino}benzoic acid] | 272 nM
29 | Cc1c(-c2ccccc2)nc2ccc(C(F)(F)F)cc2c1C(=O)Nc1ccc(C(=O)O)cc1F [Example 34, 3-Fluoro-4-({[3-methyl-2-phenyl-6-(trifluoromethyl)quinolin-4-yl]carbonyl}amino)benzoic acid] | 93 nM
30 | Cc1c(-c2ccccc2)nc2ccc(OC(F)(F)F)cc2c1C(=O)Nc1ccc(C(=O)O)cc1F [Example 35, 3-Fluoro-4-({[3-methyl-2-phenyl-6-(trifluoromethoxy)quinolin-4-yl]carbonyl}amino)benzoic acid] | 290 nM
31 | Cc1c(-c2ccccc2)nc2ccc([Si](C)(C)C)cc2c1C(=O)Nc1ccc(C(=O)O)cc1F [Example 36, 3-Fluoro-4-({[3-methyl-2-phenyl-6-(trimethylsilyl)quinolin-4-yl]carbonyl}amino)benzoic acid] | 78 nM
32 | O=C(O)c1ccc(NC(=O)c2c(CF)c(-c3ccccc3)nc3ccc(Br)cc23)c(F)c1 [Example 37, 4-({[6-Bromo-3-(fluoromethyl)-2-phenylquinolin-4-yl]carbonyl}amino)-3-fluorobenzoic acid] | 39 nM
33 | O=C(O)c1ccc(NC(=O)c2c(C(F)F)c(-c3ccccc3)nc3ccc(Br)cc23)c(F)c1 [Example 38, 4-({[6-Bromo-3-(difluoromethyl)-2-phenylquinolin-4-yl]carbonyl}amino)-3-fluorobenzoic acid] | 265 nM
34 | CCc1c(-c2ccccc2)nc2ccc(Br)cc2c1C(=O)Nc1ccc(C(=O)O)cc1F [Example 39, 4-{[(6-Bromo-3-ethyl-2-phenylquinolin-4-yl)carbonyl]amino}-3-fluorobenzoic acid] | 190 nM
35 | CCCc1c(-c2ccccc2)nc2ccc(Br)cc2c1C(=O)Nc1ccc(C(=O)O)cc1F [Example 40, 4-{[(6-Bromo-2-phenyl-3-propylquinolin-4-yl)carbonyl]amino}-3-fluorobenzoic acid] | 560 nM
36 | Cc1c(-c2ccccc2)nc2cc(Cl)c(Br)cc2c1C(=O)Nc1ccc(C(=O)O)cc1F [Example 41, 4-{[(6-Bromo-7-chloro-3-methyl-2-phenylquinolin-4-yl)carbonyl]amino}-3-fluorobenzoic acid] | 25 nM
37 | Cc1c(-c2ccccc2)nc2cc(Cl)c(Cl)cc2c1C(=O)Nc1ccc(C(=O)O)cc1F [Example 42, 4-{[(6,7-Dichloro-3-methyl-2-phenylquinolin-4-yl)carbonyl]amino}-3-fluorobenzoic acid] | 33 nM
